Measured values taken from patent EP3478687B1 (Daewoong Pharmaceutical Co., Ltd., priority 2016, dated 2018).

How the values were obtained:
[1] = biological target: T1, Recombinant purified human JAK3 (Homo sapiens, UniProt P52333); test: JAK3 kinase inhibitory activity, ADP-Glo kinase assay (Promega V9441); format: biochemical; conditions: ATP 5 uM, 4 ng JAK3 per reaction, 1 hour 30 °C, chemiluminescence
T1 construct: purchased Promega V9441
T1 sequence (P52333 1-1124): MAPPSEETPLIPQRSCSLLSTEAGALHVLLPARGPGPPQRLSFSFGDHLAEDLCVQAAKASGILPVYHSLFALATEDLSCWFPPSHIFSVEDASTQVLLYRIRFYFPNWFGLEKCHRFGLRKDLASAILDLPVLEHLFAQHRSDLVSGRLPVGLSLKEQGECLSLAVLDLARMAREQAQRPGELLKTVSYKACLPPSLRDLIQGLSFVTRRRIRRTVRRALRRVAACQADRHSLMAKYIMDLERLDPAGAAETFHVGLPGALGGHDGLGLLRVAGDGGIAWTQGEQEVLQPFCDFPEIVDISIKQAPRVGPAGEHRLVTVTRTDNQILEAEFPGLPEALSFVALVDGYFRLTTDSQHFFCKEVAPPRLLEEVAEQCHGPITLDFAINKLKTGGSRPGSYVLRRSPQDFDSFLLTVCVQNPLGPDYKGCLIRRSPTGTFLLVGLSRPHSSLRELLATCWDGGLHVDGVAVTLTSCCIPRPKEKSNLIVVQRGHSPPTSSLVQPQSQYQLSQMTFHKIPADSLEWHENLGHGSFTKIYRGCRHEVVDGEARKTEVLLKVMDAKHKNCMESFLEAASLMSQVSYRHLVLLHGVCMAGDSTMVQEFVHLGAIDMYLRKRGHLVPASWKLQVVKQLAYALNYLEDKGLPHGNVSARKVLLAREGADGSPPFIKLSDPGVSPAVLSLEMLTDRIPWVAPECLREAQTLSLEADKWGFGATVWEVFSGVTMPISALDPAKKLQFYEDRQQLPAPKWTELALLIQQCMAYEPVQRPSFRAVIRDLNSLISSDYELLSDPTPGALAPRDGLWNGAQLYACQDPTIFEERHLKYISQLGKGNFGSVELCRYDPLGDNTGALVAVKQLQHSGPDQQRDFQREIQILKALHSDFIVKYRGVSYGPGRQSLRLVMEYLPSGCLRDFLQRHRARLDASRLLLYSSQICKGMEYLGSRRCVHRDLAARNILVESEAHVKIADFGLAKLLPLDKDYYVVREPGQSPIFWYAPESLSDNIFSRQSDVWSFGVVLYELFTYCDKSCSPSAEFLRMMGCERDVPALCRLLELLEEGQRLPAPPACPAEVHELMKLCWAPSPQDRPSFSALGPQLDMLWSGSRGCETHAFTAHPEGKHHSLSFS
Summary of the method: (§1)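 IC50 values come from ADP-Glo luminescence after 1 h kinase reactions at 30 °C in 1% DMSO on 0.2 µg/µL Poly(Glu4,Tyr1) substrate. ATP was 10 µM for BTK (8 ng, buffer containing MnCl2) and 5 µM for JAK3 (4 ng), in Tris-Cl pH 7.5/MgCl2/BSA/DTT.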

[2] = biological target: T2, Recombinant purified human BTK (Homo sapiens, UniProt Q06187); test: BTK kinase inhibitory activity, ADP-Glo kinase assay (Promega V9071); format: biochemical; conditions: ATP 10 uM, 8 ng BTK per reaction, 1 hour 30 °C, chemiluminescence
T2 construct: purchased Promega V9071
T2 sequence (Q06187 whole entry): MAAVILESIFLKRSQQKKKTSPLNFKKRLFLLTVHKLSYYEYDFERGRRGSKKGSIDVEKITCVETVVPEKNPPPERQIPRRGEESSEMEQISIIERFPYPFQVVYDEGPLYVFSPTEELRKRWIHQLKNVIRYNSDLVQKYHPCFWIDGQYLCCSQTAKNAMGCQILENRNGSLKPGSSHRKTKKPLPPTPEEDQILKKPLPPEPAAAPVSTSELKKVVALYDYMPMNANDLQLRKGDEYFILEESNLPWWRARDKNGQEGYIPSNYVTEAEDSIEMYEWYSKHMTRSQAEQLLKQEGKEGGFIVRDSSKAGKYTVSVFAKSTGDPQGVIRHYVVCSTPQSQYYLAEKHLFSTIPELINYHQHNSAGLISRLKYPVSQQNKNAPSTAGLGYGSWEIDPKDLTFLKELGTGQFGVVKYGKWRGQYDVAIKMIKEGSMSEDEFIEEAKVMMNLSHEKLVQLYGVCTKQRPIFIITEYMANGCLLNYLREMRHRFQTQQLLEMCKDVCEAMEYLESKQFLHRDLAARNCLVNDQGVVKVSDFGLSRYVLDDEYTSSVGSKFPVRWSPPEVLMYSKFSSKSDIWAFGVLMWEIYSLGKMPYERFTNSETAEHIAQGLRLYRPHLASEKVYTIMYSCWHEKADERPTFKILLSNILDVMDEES
Summary of the method: as §1

Structure (SMILES)	IC50 [1]	IC50 [2]
C=CC(=O)N1CCC[C@@H](N(C)c2nc(Nc3cnoc3)nc3[nH]ccc23)C1 [Example 102]	13.2 nM	146 nM
C=CC(=O)N1CCC[C@@H](N(C)c2nc(Nc3cnn(CC(F)F)c3)nc3[nH]ccc23)C1 [Example 103, (R)-1-(3-((2-((1-(2,2-difluoroethyl)-1H-pyrazol-4-yl)amino)-7H-pyrrolo[2,3-d]pyrimidin-4-yl)(methyl)amino)piperidin-1-yl)prop-2-en-1-one]	1.3 nM	21 nM
C=CC(=O)N1CCC[C@@H](Sc2nc(Nc3cnn(CC)c3)nc3[nH]ccc23)C1 [Example 104, (R)-1-(3-((2-((1-ethyl-1H-pyrazol-4-yl)amino)-7H-pyrrolo[2,3-d]pyrimidin-4-yl)thio)piperidin-1-yl)prop-2-en-1-one]	0.3 nM	2.7 nM
C=CC(=O)N1CCC[C@@H](Sc2nc(Nc3cnn(CC)c3)nc3[nH]ncc23)C1 [Example 105, (R)-1-(3-((6-((1-ethyl-1H-pyrazol-4-yl)amino)-1H-pyrazolo [3,4-d]pyrimidin-4-yl)thio)piperidin-1-yl)prop-2-en-1-one]	3.6 nM	1.9 nM
C=CC(=O)N1CC[C@@H](C)[C@@H](Nc2nc(Nc3cnn(CC)c3)nc3[nH]ncc23)C1 [Example 106, 1-((3R,4R)-3-((6-((1-ethyl-1H-pyrazol-4-yl)amino)-1H-pyrazolo [3,4-d]pyrimidin-4-yl)amino)-4-methylpiperidin-1-yl)prop-2-en-1-one]	54.8 nM	1.8 nM
C=CC(=O)N1CCC[C@@H](Sc2nc(Nc3cnn(CC(F)F)c3)nc3[nH]nc(Cl)c23)C1 [Example 108]	0.6 nM	1.3 nM
C=CC(=O)N1CCC[C@@H](Sc2nc(Nc3cnn(C4CC4)c3)nc3[nH]nc(Cl)c23)C1 [Example 110]	1.7 nM	1.4 nM
C=CC(=O)N1CCC[C@@H](Sc2nc(Nc3cnn(CC)c3)nc3[nH]nc(Cl)c23)C1 [Example 111, (R)-1-(3-((3-chloro-6-((1-ethyl-1H-pyrazol-4-yl)amino)-1H-pyrazolo[3,4-d]pyrimidin-4-yl)thio)piperidin-1-yl)prop-2-en-1-one]	1.1 nM	1.3 nM
C=CC(=O)N1CCC[C@@H](Sc2nc(Nc3cnn(C(C)(C)C)c3)nc3[nH]nc(Cl)c23)C1 [Example 112, (R)-1-(3-((6-((1-(tert-butyl)-1H-pyrazol-4-yl)amino)-3-chloro-1H-pyrazolo [3,4-d]pyrimidin-4-yl)thio)piperidin-1-yl)prop-2-en-1-one]	1.6 nM	1.8 nM
C=CC(=O)N1CCC[C@@H](Sc2nc(Nc3cnn(CC(C)C)c3)nc3[nH]nc(Cl)c23)C1 [Example 113, (R)-1-(3-((3-chloro-6-((1-isobutyl-1H-pyrazol-4-yl)amino)-1H-pyrazolo[3,4-d]pyrimidin-4-yl)thio)piperidin-1-yl)prop-2-en-1-one]	2.8 nM	2.3 nM
C=CC(=O)N1CCC[C@@H](Sc2nc(Nc3cnn(CC(F)(F)F)c3)nc3[nH]nc(Cl)c23)C1 [Example 114, (R)-1-(3-((3-chloro-6-((1-(2,2,2-trifluoroethyl)-1H-pyrazol-4-yl)amino)-1H-pyrazolo [3,4-d]pyrimidin-4-yl)thio)piperidin-1-yl)prop-2-en-1-one]	0.9 nM	2.3 nM
C=CC(=O)N1CCC[C@@H](Sc2nc(Nc3cnn(CCC)c3)nc3[nH]nc(Cl)c23)C1 [Example 115, (R)-1-(3-((3-chloro-6-((1-propyl-1H-pyrazol-4-yl)amino)-1H-pyrazolo[3,4-d]pyrimidin-4-yl)thio)piperidin-1-yl)prop-2-en-1-one]	1.7 nM	2 nM
C=CC(=O)N1CCC[C@@H](Sc2nc(Nc3cnoc3)nc3[nH]nc(Cl)c23)C1 [Example 116, (R)-1-(3-((3-chloro-6-(isoxazol-4-ylamino)-1H-pyrazolo [3,4-d]pyrimidin-4-yl)thio)piperidin-1-yl)prop-2-en-1-one]	19.5 nM	25.3 nM
C=CC(=O)N1CCC[C@@H](Nc2nc(Nc3cnoc3C)nc3[nH]nc(Cl)c23)C1 [Example 117]	> 400 nM	81.2 nM
C=CC(=O)N1CCC[C@@H](N(C)c2nc(Nc3cnn(CC)c3)nc3[nH]nc(Cl)c23)C1 [Example 118, (R)-1-(3-((3-chloro-6-((1-ethyl-1H-pyrazol-4-yl)amino)-1H-pyrazolo[3,4-d]pyrimidin-4-yl)(methyl)amino)piperidin-1-yl)prop-2-en-1-one]	3.2 nM	1.3 nM
C=CC(=O)N1CCC[C@@H](N(C)c2nc(Nc3cnoc3)nc3[nH]nc(Cl)c23)C1 [Example 119]	32.5 nM	11.1 nM
C=CC(=O)N1CC[C@@H](C)[C@@H](Nc2nc(Nc3cnn(CC(F)(F)F)c3)nc3[nH]nc(Cl)c23)C1 [Example 120, 1-((3R,4R)-3-((3-chloro-6-((1-(2,2,2-trifluoroethyl)-1H-pyrazol-4-yl)amino)-1H-pyrazolo[3,4-d]pyrimidin-4-yl)amino)-4-methylpiperidin-1-yl)prop-2-en-1-one]	7.8 nM	7.5 nM
C=CC(=O)N1CC[C@@H](C)[C@@H](Nc2nc(Nc3cnn(CCC)c3)nc3[nH]nc(Cl)c23)C1 [Example 121, 1-((3R,4R)-3-((3-chloro-6-((1-propyl-1H-pyrazol-4-yl)amino)-1H-pyrazolo[3,4-d]pyrimidin-4-yl)amino)-4-methylpiperidin-1-yl)prop-2-en-1-one]	18 nM	4.9 nM
C=CC(=O)N1CC[C@@H](C)[C@@H](Nc2nc(Nc3cnn(CCN(CC)CC)c3)nc3[nH]nc(Cl)c23)C1 [Example 122, 1-((3R,4R)-3-((3-chloro-6-((1-(2-(diethylamino)ethyl)-1H-pyrazol-4-yl)amino)-1H-pyrazolo[3,4-d]pyrimidin-4-yl)amino)-4-methylpiperidin-1-yl)prop-2-en-1-one]	8.1 nM	6 nM
C=CC(=O)N1CC[C@@H](C)[C@@H](Nc2nc(Nc3cnn(CCN4CCOCC4)c3)nc3[nH]nc(Cl)c23)C1 [Example 123, 1-((3R,4R)-3-((3-chloro-6-((1-(2-morpholinoethyl)-1H-pyrazol-4-yl)amino)-1H-pyrazolo[3,4-d]pyrimidin-4-yl)amino)-4-methylpiperidin-1-yl)prop-2-en-1-one]	7.9 nM	5.8 nM
C=CC(=O)N1CC[C@@H](C)[C@@H](Nc2nc(Nc3cnn(CC(C)C)c3)nc3[nH]nc(Cl)c23)C1 [Example 124, 1-((3R,4R)-3-((3-chloro-6-((1-isobutyl-1H-pyrazol-4-yl)amino)-1H-pyrazolo[3,4-d]pyrimidin-4-yl)amino)-4-methylpiperidin-1-yl)prop-2-en-1-one]	8.4 nM	3.5 nM
C=CC(=O)N1CC[C@@H](C)[C@@H](Nc2nc(Nc3cnn(Cc4cccc(OC)c4)c3)nc3[nH]nc(Cl)c23)C1 [Example 125, 1-((3R,4R)-3-((3-chloro-6-((1-(3-methoaybenzyl)-1H-pyrazol-4-yl)amino)-1H-pyrazolo[3,4-d]pyrimidin-4-yl)amino)-4-methylpiperidin-1-yl)prop-2-en-1-one]	20.4 nM	8.2 nM
C=CC(=O)N1CC[C@@H](C)[C@@H](Nc2nc(Nc3cnn(CC#N)c3)nc3[nH]nc(Cl)c23)C1 [Example 126, 2-(4-((4-(((3R,4R)-1-acryloyl-4-methylpiperidin-3-yl)amino)-3-chloro-1H-pyrazolo[3,4-d]pyrimidin-6-yl)amino)-1H-pyrazol-1-yl)acetonitrile]	2.9 nM	1.2 nM
C=CC(=O)N1CC[C@@H](C)[C@@H](Nc2nc(Nc3cnn(C(F)F)c3)nc3[nH]nc(Cl)c23)C1 [Example 127, 1-((3R,4R)-3-((3-chloro-6-((1-(difluoromethyl)-1H-pyrazol-4-yl)amino)-1H-pyrazolo [3,4-d]pyrimidin-4-yl)amino)-4-methylpiperidin-1-yl)prop-2-en-1-one]	43.1 nM	1.5 nM
C=CC(=O)N1CC[C@@H](C)[C@@H](Nc2nc(Nc3cnn(C)c3)nc3[nH]nc(Cl)c23)C1 [Example 128]	14.6 nM	5.8 nM
